*1 amine or outer side, *2 acyl side, *3 side chain or, on linkers, in order; H or OH if unused. Where a SMILES comes first, the peptide text is derived from it. Side-chain parts run from the residue outwards. [ ]: non-standard residue; d: D form. The star is where a group is joined. Phe(4-CF3) = N[C@@H](Cc1ccc(C(F)(F)F)cc1)C(=O)O; X2 = O=C([C@H](CCNCc1ccccn1)N[*:1])[*:2]; Cha = N[C@@H](CC1CCCCC1)C(=O)O; Chg = N[C@H](C(=O)O)C1CCCCC1; Tle = CC(C)(C)[C@H](N)C(=O)O; Pip = O=C(O)[C@@H]1CCCCN1; dDab = NCC[C@@H](N)C(=O)O; Orn = NCCC[C@H](N)C(=O)O; Dab = NCC[C@H](N)C(=O)O; Nva = CCC[C@H](N)C(=O)O; Dap = NC[C@H](N)C(=O)O; CO = O=C([*:1])[*:2]; NHiPr = CC(C)N*

The series concerns human red blood cells (hRBC). Description: Hemolysis of human red blood cells. To be noted: red cells of human, 1 h, 100. Format: cell-based. Here is the method: Lyophilized peptides were weighed on a Microbalance (Mettler MT5) and dissolved in sterile water to a final concentration of 1 mg/ml. Stock solutions were kept at +4° C., light protected.
The peptides were tested for their hemolytic activity against human red blood cells (hRBC). Fresh hRBC were washed three times with phosphate buffered saline (PBS) and centrifuged for 10 min at 2000×g. Compounds (100 μg/ml) were incubated with 20% hRBC (v/v) for 1 h at 37° C. and shaking at 300 rpm. The final erythrocyte concentration was approximately 0.9×10^9 cells/ml. A value of 0% and 100% cell lyses, respectively, was determined by incubation of hRBC in the presence of PBS containing 0.001% acetic acid and 2.5% Triton X-100 in H2O, respectively. The samples were centrifuged, the supernatants were 8-fold diluted in PBS buffer and the optical densities (OD) were measured at 540 nm. The 100% lyses value (OD540H2O) gave an OD540 of approximately 0.5-1.0.
Percent hemolysis was calculated as follows: (OD540peptide/OD540H2O)×100%.
For the molecule `CC(C)C[C@@H]1NC(=O)[C@@H]2CCCN2C(=O)[C@H]2CCCN2C(=O)[C@H](CO)NC(=O)[C@H](C)NC(=O)[C@H](C(C)C)NC(=O)[C@H](CCN)NC(=O)[C@H](Cc2c[nH]c3ccccc23)NC(=O)[C@H](CCN)NC(=O)[C@@H](CCN)NC(=O)[C@H](CCCN)NC(=O)[C@H](CCN)NC(=O)[C@H](CC2CCCCC2)NC(=O)[C@H](CO)NC1=O` [compound 140] (cyclo(LS[Cha][Dab][Orn][dDab][Dab]W[Dab]VAS[dP]P)), the “Hemolysis at 100 μg/ml” value turned out to be 2%.
With `CC(C)C[C@@H]1NC(=O)[C@@H]2CCCN2C(=O)[C@H]2CCCN2C(=O)[C@H](CO)NC(=O)[C@H](CCN)NC(=O)[C@H](C(C)(C)C)NC(=O)[C@H](CCN)NC(=O)[C@H](Cc2c[nH]c3ccccc23)NC(=O)[C@H](CCN)NC(=O)[C@@H](CCN)NC(=O)[C@H](CCCN)NC(=O)[C@H](CCN)NC(=O)[C@H](Cc2ccc(O)cc2)NC(=O)[C@H](CC(=O)O)NC1=O` [compound 114] (cyclo(LDY[Dab][Orn][dDab][Dab]W[Dab][Tle][Dab]S[dP]P)), the “Hemolysis at 100 μg/ml” value was found to be 0.5%.
Then `CCC[C@@H]1NC(=O)[C@@H]2CCCN2C(=O)[C@H]2CCCN2C(=O)[C@H](CO)NC(=O)[C@H](C)NC(=O)[C@H](C(C)(C)C)NC(=O)[C@H](CCN)NC(=O)[C@H](Cc2c[nH]c3ccccc23)NC(=O)[C@H](CCN)NC(=O)[C@@H](CCN)NC(=O)[C@H](CCCN)NC(=O)[C@H](CCN)NC(=O)[C@H](Cc2ccc(C(F)(F)F)cc2)NC(=O)[C@H](CO)NC1=O` [compound 106] (cyclo([Nva]S[Phe(4-CF3)][Dab][Orn][dDab][Dab]W[Dab][Tle]AS[dP]P)), with 2%; and `C[C@@H]1NC(=O)[C@H](C(C)(C)C)NC(=O)[C@H](CCN)NC(=O)[C@H](Cc2c[nH]c3ccccc23)NC(=O)[C@H](CCN)NC(=O)[C@@H](CCN)NC(=O)[C@H](CCCN)NC(=O)[C@H](CCN)NC(=O)[C@H](CC2CCCCC2)NC(=O)[C@H](CN)NC(=O)[C@H](Cc2c[nH]c3ccccc23)NC(=O)[C@@H]2CCCCN2C(=O)[C@H]2CCCN2C(=O)[C@H](CO)NC1=O` [compound 63] (cyclo(AS[dP][Pip]W[Dap][Cha][Dab][Orn][dDab][Dab]W[Dab][Tle])), with 3%.
Consider `CCC[C@@H]1NC(=O)[C@@H]2CCCN2C(=O)[C@H]2CCCN2C(=O)[C@H](CO)NC(=O)[C@H](C)NC(=O)[C@H](C2CCCCC2)NC(=O)[C@H](CCN)NC(=O)[C@H](Cc2c[nH]c3ccccc23)NC(=O)[C@H](CCN)NC(=O)[C@@H](CCN)NC(=O)[C@H](CCCN)NC(=O)[C@H](CCN)NC(=O)[C@H](CC2CCCCC2)NC(=O)[C@H](CO)NC1=O` [compound 134] (cyclo([Nva]S[Cha][Dab][Orn][dDab][Dab]W[Dab][Chg]AS[dP]P)), for which the “Hemolysis at 100 μg/ml” value amounted to 8%.
On to `CC(C)C[C@@H]1NC(=O)[C@@H]2CCCN2C(=O)[C@H]2CCCN2C(=O)[C@H](CO)NC(=O)[C@H](CC(=O)O)NC(=O)[C@H](C(C)(C)C)NC(=O)[C@H](CCN)NC(=O)[C@H](Cc2c[nH]c3ccccc23)NC(=O)[C@H](CCN)NC(=O)[C@@H](CCN)NC(=O)[C@H](CCCN)NC(=O)[C@H](CCN)NC(=O)[C@H](Cc2ccc(O)cc2)NC(=O)[C@H](CCN)NC1=O` [compound 159] (cyclo(L[Dab]Y[Dab][Orn][dDab][Dab]W[Dab][Tle]DS[dP]P)), for which the “Hemolysis at 100 μg/ml” value is given as 1%.
Consider `C[C@@H]1NC(=O)[C@H](CC2CCCCC2)NC(=O)[C@H](CCN)NC(=O)[C@H](Cc2c[nH]c3ccccc23)NC(=O)[C@H](CCN)NC(=O)[C@@H](CCN)NC(=O)[C@H](CCCN)NC(=O)[C@H](CCN)NC(=O)[C@H](Cc2ccc(O)cc2)NC(=O)[C@H](CO)NC(=O)[C@H](Cc2c[nH]c3ccccc23)NC(=O)[C@@H]2CCCN2C(=O)[C@H]2CCCN2C(=O)[C@H](CO)NC1=O` [compound 70] (cyclo(WSY[Dab][Orn][dDab][Dab]W[Dab][Cha]AS[dP]P)), for which the “Hemolysis at 100 μg/ml” value is 5%.
Take `C[C@@H]1NC(=O)[C@H](C(C)(C)C)NC(=O)[C@H](CCN)NC(=O)[C@H](Cc2c[nH]c3ccccc23)NC(=O)[C@H](CCN)NC(=O)[C@@H](CCN)NC(=O)[C@H](CCCN)NC(=O)[C@H](CCN)NC(=O)[C@H](CC2CCCCC2)NC(=O)[C@H](CCNCc2ccccn2)NC(=O)[C@H](Cc2c[nH]c3ccccc23)NC(=O)[C@@H]2CCCN2C(=O)[C@H]2CCCN2C(=O)[C@H](CO)NC1=O` [compound 12] (cyclo(W[X2][Cha][Dab][Orn][dDab][Dab]W[Dab][Tle]AS[dP]P)): the “Hemolysis at 100 μg/ml” value came to 0%.
With `CCC[C@@H]1NC(=O)[C@@H]2CCCN2C(=O)[C@H]2CCCN2C(=O)[C@H](CO)NC(=O)[C@H](CO)NC(=O)[C@H](C(C)(C)C)NC(=O)[C@H](CCN)NC(=O)[C@H](Cc2c[nH]c3ccccc23)NC(=O)[C@H](CCN)NC(=O)[C@@H](CCN)NC(=O)[C@H](CCCN)NC(=O)[C@H](CCN)NC(=O)[C@H](CC2CCCCC2)NC(=O)[C@H](CO)NC1=O` [compound 144] (cyclo([Nva]S[Cha][Dab][Orn][dDab][Dab]W[Dab][Tle]SS[dP]P)), the “Hemolysis at 100 μg/ml” value is given as 7%.
In the case of `CCC[C@@H]1NC(=O)[C@@H]2CCCN2C(=O)[C@H]2CCCN2C(=O)[C@H](CO)NC(=O)[C@H](CO)NC(=O)[C@H](C(C)(C)C)NC(=O)[C@H](CCN)NC(=O)[C@H](Cc2c[nH]c3ccccc23)NC(=O)[C@H](CCN)NC(=O)[C@@H](CCN)NC(=O)[C@H](CCCN)NC(=O)[C@H](CCN)NC(=O)[C@H](Cc2ccc(O)cc2)NC(=O)[C@H](CO)NC1=O` [compound 118] (cyclo([Nva]SY[Dab][Orn][dDab][Dab]W[Dab][Tle]SS[dP]P)), the “Hemolysis at 100 μg/ml” value amounted to 1%.
For `CCC[C@@H]1NC(=O)[C@H](CCN)NC(=O)[C@H](Cc2c[nH]c3ccccc23)NC(=O)[C@H](CCN)NC(=O)[C@@H](CCN)NC(=O)[C@H](CCCN)NC(=O)[C@H](CCN)NC(=O)[C@H](Cc2ccc(O)cc2)NC(=O)[C@H](CO)NC(=O)[C@H](Cc2c[nH]c3ccccc23)NC(=O)[C@@H]2CCCN2C(=O)[C@H]2CCCN2C(=O)[C@H](CO)NC(=O)[C@H](C)NC1=O` [compound 71] (cyclo(WSY[Dab][Orn][dDab][Dab]W[Dab][Nva]AS[dP]P)), the “Hemolysis at 100 μg/ml” value is reported as 0%.
`CC(C)NC(=O)NC[C@@H]1NC(=O)[C@H](Cc2c[nH]c3ccccc23)NC(=O)[C@@H]2CCCN2C(=O)[C@H]2CCCN2C(=O)[C@H](CO)NC(=O)[C@H](C)NC(=O)[C@H](C(C)(C)C)NC(=O)[C@H](CCN)NC(=O)[C@H](Cc2c[nH]c3ccccc23)NC(=O)[C@H](CCN)NC(=O)[C@@H](CCN)NC(=O)[C@H](CCCN)NC(=O)[C@H](CCN)NC(=O)[C@H](CC2CCCCC2)NC1=O` [compound 17] (cyclo(W[Dap]([CO-NHiPr])[Cha][Dab][Orn][dDab][Dab]W[Dab][Tle]AS[dP]P)): the “Hemolysis at 100 μg/ml” value is 6%.
The same measure for `CC(C)C[C@@H]1NC(=O)[C@@H]2CCCN2C(=O)[C@H]2CCCN2C(=O)[C@H](CO)NC(=O)[C@H](C)NC(=O)[C@H](C(C)(C)C)NC(=O)[C@H](CCN)NC(=O)[C@H](Cc2c[nH]c3ccccc23)NC(=O)[C@H](CCN)NC(=O)[C@@H](CCN)NC(=O)[C@H](CCCNC(=N)N)NC(=O)[C@H](CCN)NC(=O)[C@H](Cc2ccc(O)cc2)NC(=O)[C@H](CO)NC1=O` [compound 98] (cyclo(LSY[Dab]R[dDab][Dab]W[Dab][Tle]AS[dP]P)): 1%.

Source of the values: patent US9938322B2, “β-hairpin peptidomimetics” (priority 2013, dated 2018).
